pIC50: −log10 of the molar value.
Legend:
[1] = system: HeLa; test: Antiproliferative activity against human HeLa cells measured after 72 hrs by EZ-Cytox assay; assay type: functional, cell-based
[2] = target: DNA topoisomerase 2-alpha (Homo sapiens) (UniProt P11388); test: Inhibition of recombinant human topoisomerase 2alpha-mediated relaxation of supercoiled pBR322 DNA at 100 uM measured after 30 mins by ethidium bromide staining based agarose gel electrophoresis relative to control
[3] = target: T1, DNA topoisomerase 1 (Homo sapiens) (UniProt P11387); test: Inhibition of recombinant human topoisomerase 1-mediated relaxation of supercoiled pBR322 DNA at 100 uM measured after 30 mins by ethidium bromide staining based agarose gel electrophoresis relative to control
T1 sequence (whole entry): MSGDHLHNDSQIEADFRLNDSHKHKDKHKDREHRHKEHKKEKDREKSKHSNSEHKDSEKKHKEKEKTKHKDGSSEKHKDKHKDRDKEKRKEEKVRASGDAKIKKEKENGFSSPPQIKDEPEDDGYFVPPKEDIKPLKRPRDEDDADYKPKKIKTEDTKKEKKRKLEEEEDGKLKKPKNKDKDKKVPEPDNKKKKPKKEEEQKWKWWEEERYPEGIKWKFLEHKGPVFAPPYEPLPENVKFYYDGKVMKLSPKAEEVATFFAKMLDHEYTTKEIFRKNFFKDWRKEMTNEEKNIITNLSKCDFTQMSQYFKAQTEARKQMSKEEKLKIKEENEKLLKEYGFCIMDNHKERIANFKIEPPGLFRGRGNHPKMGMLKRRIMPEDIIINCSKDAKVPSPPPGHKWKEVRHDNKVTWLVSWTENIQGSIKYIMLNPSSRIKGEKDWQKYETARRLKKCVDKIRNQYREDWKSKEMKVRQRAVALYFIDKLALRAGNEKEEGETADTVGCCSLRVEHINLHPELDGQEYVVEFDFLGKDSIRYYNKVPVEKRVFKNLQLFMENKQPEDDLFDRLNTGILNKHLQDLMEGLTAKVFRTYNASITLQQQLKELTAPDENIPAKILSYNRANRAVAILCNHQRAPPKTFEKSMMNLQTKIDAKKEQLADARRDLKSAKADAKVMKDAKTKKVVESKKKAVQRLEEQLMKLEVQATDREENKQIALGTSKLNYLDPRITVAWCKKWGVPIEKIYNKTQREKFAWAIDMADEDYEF

[4] = target: DNA topoisomerase 2-alpha (Homo sapiens) (UniProt P11388); test: Inhibition of recombinant human topoisomerase 2alpha-mediated relaxation of supercoiled pBR322 DNA at 20 uM measured after 30 mins by ethidium bromide staining based agarose gel electrophoresis relative to control
[5] = system: T47D; test: Antiproliferative activity against human T47D cells measured after 72 hrs by EZ-Cytox assay; assay type: functional, cell-based
[6] = system: DU-145; test: Antiproliferative activity against human DU145 cells measured after 72 hrs by EZ-Cytox assay; assay type: functional, cell-based; details: DU-145, 72 h
[7] = system: HCT-15; test: Antiproliferative activity against human HCT15 cells measured after 72 hrs by EZ-Cytox assay; assay type: functional, cell-based; details: HCT-15, 72 h

Sequence of DNA topoisomerase 2-alpha (Homo sapiens) (P11388 whole entry): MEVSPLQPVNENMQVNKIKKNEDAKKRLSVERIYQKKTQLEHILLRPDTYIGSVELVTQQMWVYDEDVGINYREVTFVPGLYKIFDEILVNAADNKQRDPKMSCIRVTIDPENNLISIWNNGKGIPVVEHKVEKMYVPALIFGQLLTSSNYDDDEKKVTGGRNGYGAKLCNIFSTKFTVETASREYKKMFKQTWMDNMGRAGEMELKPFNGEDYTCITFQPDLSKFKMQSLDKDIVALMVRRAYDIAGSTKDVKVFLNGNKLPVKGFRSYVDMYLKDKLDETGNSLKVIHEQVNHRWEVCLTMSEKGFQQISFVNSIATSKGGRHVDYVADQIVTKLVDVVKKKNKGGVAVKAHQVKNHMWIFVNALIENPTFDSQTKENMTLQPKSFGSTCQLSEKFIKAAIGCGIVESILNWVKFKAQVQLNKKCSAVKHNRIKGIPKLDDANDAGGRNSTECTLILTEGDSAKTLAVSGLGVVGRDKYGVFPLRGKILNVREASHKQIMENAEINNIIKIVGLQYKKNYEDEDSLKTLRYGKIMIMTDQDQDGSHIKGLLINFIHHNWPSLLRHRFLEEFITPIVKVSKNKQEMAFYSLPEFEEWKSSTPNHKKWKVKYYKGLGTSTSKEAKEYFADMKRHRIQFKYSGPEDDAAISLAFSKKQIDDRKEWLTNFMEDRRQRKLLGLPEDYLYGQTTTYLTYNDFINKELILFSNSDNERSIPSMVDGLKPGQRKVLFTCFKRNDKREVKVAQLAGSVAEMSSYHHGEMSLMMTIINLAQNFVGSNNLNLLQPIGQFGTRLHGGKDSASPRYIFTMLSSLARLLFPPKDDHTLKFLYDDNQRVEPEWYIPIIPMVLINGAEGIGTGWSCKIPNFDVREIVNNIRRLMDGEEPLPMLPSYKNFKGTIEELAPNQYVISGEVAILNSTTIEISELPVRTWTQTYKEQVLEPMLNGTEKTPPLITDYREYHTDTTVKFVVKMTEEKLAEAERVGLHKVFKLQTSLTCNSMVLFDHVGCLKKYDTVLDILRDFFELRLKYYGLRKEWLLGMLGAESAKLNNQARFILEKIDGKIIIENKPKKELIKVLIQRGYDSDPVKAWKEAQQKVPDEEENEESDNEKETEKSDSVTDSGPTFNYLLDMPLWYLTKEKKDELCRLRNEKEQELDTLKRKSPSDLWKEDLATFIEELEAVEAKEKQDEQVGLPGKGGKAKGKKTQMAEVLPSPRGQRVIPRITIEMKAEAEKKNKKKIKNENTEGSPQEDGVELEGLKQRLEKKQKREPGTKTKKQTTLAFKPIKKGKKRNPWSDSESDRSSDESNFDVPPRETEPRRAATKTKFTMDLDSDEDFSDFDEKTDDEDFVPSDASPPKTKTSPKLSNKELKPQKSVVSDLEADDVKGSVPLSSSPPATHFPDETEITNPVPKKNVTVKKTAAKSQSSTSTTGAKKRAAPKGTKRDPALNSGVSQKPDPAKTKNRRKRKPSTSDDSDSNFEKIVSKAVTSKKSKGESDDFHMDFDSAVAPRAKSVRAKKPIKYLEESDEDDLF

Row | SMILES | pIC50 [1] | inhibition [2] [%] | inhibition [3] [%] | inhibition [4] [%] | pIC50 [5] | pIC50 [6] | pIC50 [7]
1 | Oc1cccc(-c2cc(-c3ccccc3C(F)(F)F)nc3c2Cc2cc(O)ccc2-3)c1 | 5.40 | 80.6 | 11.7 | 2.4 | 5.90 | 5.60 | 5.55
2 | Oc1ccccc1-c1cc(-c2ccccc2Cl)c2c(n1)-c1cccc(O)c1C2 | 5.34 | 79.2 | 23.7 | 1.8 | 5.52 | 5.39 | 5.39
3 | Oc1ccc2c(c1)Cc1c(-c3ccccc3O)cc(-c3ccccc3C(F)(F)F)nc1-2 | 5.53 | 90.2 | 1.6 | 3.7 | 5.94 | 5.69 | 5.79
4 | Oc1cccc(-c2cc(-c3ccccc3Cl)nc3c2Cc2c(O)cccc2-3)c1 | 6.23 | 100 | 0 | 24.9 | 5.82 | 6.04 | 6.10
5 | Oc1cccc(-c2cc(-c3ccccc3Cl)c3c(n2)-c2cccc(O)c2C3)c1 | 5.13 | 67.5 | 28.1 | 11.4 | 5.54 | 5.25 | 5.08
6 | Oc1ccc(-c2cc(-c3ccccc3C(F)(F)F)nc3c2Cc2cc(O)ccc2-3)cc1 | 5.68 | 85.9 | 13.9 | 0 | 5.98 | 5.64 | 5.61
7 | Oc1ccccc1-c1cc(-c2ccc(Cl)cc2)nc2c1Cc1cccc(O)c1-2 | 5.27 | 83.9 | 0 | 25.3 | 5.62 | 6.26 | 5.91
8 | Oc1cccc(-c2cc(-c3cccc(Cl)c3)c3c(n2)-c2cccc(O)c2C3)c1 | 4.45 | 64.6 | 7.4 | 2.3 | 4.48 | 4.67 | 5.32
9 | Oc1ccccc1-c1cc(-c2ccc(Cl)cc2)c2c(n1)-c1c(O)cccc1C2 | < 4.30 | 70.5 | 0 | 6.4 | 4.88 | 5.71 | 4.73
10 | Oc1ccccc1-c1cc(-c2ccccc2Cl)c2c(n1)-c1c(O)cccc1C2 | < 4.30 | 56.5 | 23.9 | 1.6 | 5.53 | 5.25 | 5.69
11 | Oc1cccc(-c2cc(-c3ccc(Cl)cc3)c3c(n2)-c2ccc(O)cc2C3)c1 | < 4.30 | 74.3 | 2.1 | 6.2 | < 4.30 | < 4.30 | < 4.30
12 | Oc1cccc(-c2cc(-c3ccc(Cl)cc3)nc3c2Cc2cccc(O)c2-3)c1 | 5.17 | 85.2 | 7.4 | 26.5 | 5.46 | 6.44 | 5.52
13 | Oc1ccc2c(c1)-c1nc(-c3ccccc3C(F)(F)F)cc(-c3ccccc3O)c1C2 | 5.53 | 86.1 | 0.4 | 3.4 | 5.85 | 5.54 | 5.39
14 | Oc1ccc(-c2cc(-c3ccccc3Cl)nc3c2Cc2ccc(O)cc2-3)cc1 | 5.49 | 80.9 | 0 | 19.2 | 6.02 | 6.27 | 5.52
15 | Oc1ccc(-c2cc(-c3ccc(F)cc3)nc3c2Cc2c(O)cccc2-3)cc1 | 5.31 | 50.8 | 14.7 | 3.6 | 5.86 | 5.74 | 5.65
16 | Oc1ccccc1-c1cc(-c2cccc(Cl)c2)c2c(n1)-c1c(O)cccc1C2 | 4.84 | 74.5 | 0 | 2.4 | 5.71 | 5.55 | 5.61
17 | Oc1ccc2c(c1)Cc1c(-c3ccccc3O)cc(-c3ccc(C(F)(F)F)cc3)nc1-2 | 5.10 | 99.9 | 0 | 11.9 | 6.08 | 5.68 | 5.36
18 | Oc1ccccc1-c1cc(-c2ccccc2)nc2c1Cc1c(O)cccc1-2 | 5.20 | 78.5 | 0 | 0 | 5.63 | 6.10 | 5.46
19 | Oc1ccc2c(c1)-c1nc(-c3cccc(C(F)(F)F)c3)cc(-c3ccccc3O)c1C2 | 5.28 | 98.9 | 0 | 2.8 | 6.29 | 5.79 | 5.53
20 | Oc1ccccc1-c1cc(-c2ccccc2Cl)nc2c1Cc1c(O)cccc1-2 | 6.17 | 82 | 0 | 0 | 6.04 | 6.08 | 6.11
21 | Oc1cccc(-c2cc(-c3ccc(Cl)cc3)nc3c2Cc2c(O)cccc2-3)c1 | 5.36 | 76.8 | 18.6 | 42 | 5.71 | 5.69 | 5.74
22 | Oc1cccc(-c2cc(-c3ccccc3C(F)(F)F)nc3c2Cc2cccc(O)c2-3)c1 | 5.33 | 65.2 | 15.9 | 3.3 | 5.76 | 5.94 | 5.68
23 | Oc1ccc(-c2cc(-c3ccccc3C(F)(F)F)nc3c2Cc2ccc(O)cc2-3)cc1 | 5.82 | 81 | 6.7 | 1.2 | 5.83 | 5.56 | 5.88
24 | Oc1ccc(-c2cc(-c3cccc(Cl)c3)c3c(n2)-c2cccc(O)c2C3)cc1 | 5.78 | 75.3 | 6.1 | 2.2 | 5.72 | 5.79 | 5.62
25 | Oc1cccc(-c2cc(-c3cccc(F)c3)nc3c2Cc2c(O)cccc2-3)c1 | 5.15 | 43.2 | 9.8 | 5.6 | 6.05 | 5.63 | 5.31
26 | Oc1ccc(-c2cc(-c3ccc(Cl)cc3)c3c(n2)-c2cccc(O)c2C3)cc1 | 4.74 | 97 | 1.3 | 7.5 | 4.89 | 5.74 | 5.04
27 | Oc1ccccc1-c1cc(-c2cccc(Cl)c2)nc2c1Cc1c(O)cccc1-2 | < 4.30 | 83.5 | 0 | 6.9 | 6.19 | 6.25 | 5.13
28 | Oc1ccc(-c2cc(-c3ccccc3C(F)(F)F)nc3c2Cc2c(O)cccc2-3)cc1 | < 4.30 | 30.1 | 7.1 | 0.6 | 5.58 | 5.27 | 5.42
